According to PubChem BioAssay (NCI):
Values joined by “and” are separate entries in the source; they are usually repeats but may differ in a detail not shown here. Equal entries are not always repeated.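 Five compound concentrations were applied to cells in 96-well plates for 48 hours; endpoints were derived by simple linear interpolation of the resulting dose-response curve. GI50: concentration for 50% inhibition of growth. TGI denotes the concentration required for complete inhibition of growth.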

Assays:
Assay in all cases: NCI tumour cell line growth inhibition, 48 h
[1] = test system: HS 578T breast
[2] = test system: OVCAR-4 ovarian
[3] = test system: RPMI-8226 leukemia
[4] = test system: MOLT-4 leukemia
[5] = test system: UACC-62 melanoma
[6] = test system: A498 renal
[7] = test system: UACC-257 melanoma
[8] = test system: A549 NSCLC
[9] = test system: ACHN renal
[10] = test system: CCRF-CEM leukemia

| SMILES | TGI [1] | TGI [2] | TGI [3] | TGI [4] | TGI [5] | TGI [6] | TGI [7] | TGI [8] | TGI [9] | TGI [10] | GI50 [1] | GI50 [2] | GI50 [3] | GI50 [4] | GI50 [5] | GI50 [6] | GI50 [7] | GI50 [8] | GI50 [9] | GI50 [10] |
| --- | --- | --- | --- | --- | --- | --- | --- | --- | --- | --- | --- | --- | --- | --- | --- | --- | --- | --- | --- | --- |
| CCOC(=O)C1CCCCN1CCc1c[nH]c2ccccc12 (stereo unspecified) | > 100 µM | > 100 µM | > 100 µM | > 100 µM | > 100 µM | > 100 µM | > 100 µM | > 100 µM | > 100 µM | > 100 µM |  |  |  |  |  |  |  |  |  |  |
| NC1=NCC(CN2CCCC2)O1 (stereo unspecified) | > 100 µM | > 100 µM | > 100 µM | > 100 µM | > 100 µM | > 100 µM | > 100 µM | > 100 µM | > 100 µM | > 100 µM |  |  |  |  |  |  |  |  |  |  |
| O=C1CC(n2cccc2)c2c(Br)sc(Br)c21 (stereo unspecified) | > 72.3 µM | 33.4 µM | 27.4 µM | 33.6 µM | 30.3 µM | 56.5 µM | 30.9 µM | 61.8 µM | 31.8 µM | 26.8 µM |  |  |  |  |  |  |  |  |  |  |
| N#Cc1nc(C#N)n(C(=O)c2ccccc2)c1NC(=O)c1ccccc1 | > 100 µM | > 100 µM | > 100 µM | > 100 µM | > 100 µM | > 100 µM | > 100 µM | > 100 µM | > 100 µM | > 100 µM |  |  |  |  |  |  |  |  |  |  |
| NC(=O)Cc1nc2c(=O)[nH]cnc2n1C1OC(CO)C(O)C1O (stereo unspecified) | > 100 µM | > 100 µM | > 100 µM | > 100 µM | > 100 µM | > 100 µM | > 100 µM | > 100 µM | > 100 µM | > 100 µM |  |  |  |  |  |  |  |  |  |  |
| CO[C@]1(CN2CCN3CCCC[C@@H]3C2)/C=C/C[C@H](C)[C@@H](C)S(=O)(=O)NC(=O)c2ccc3c(c2)N(C[C@@H]2CC[C@H]21)C[C@@]1(CCCc2cc(Cl)ccc21)CO3 | 3.57 µM | 6.61 µM | 41.8 µM | 2.1 µM | 1.22 µM | 6.48 µM | 9.34 µM | 10.6 µM | 3.9 µM | 13.3 µM | 1.18 µM | 1.69 µM | 0.0185 µM | 0.198 µM | 0.148 µM | 2.68 µM | 2.82 µM | 2.75 µM | 1.86 µM | 1.44 µM |
| CSc1ccc(/C=C2\N=C(c3ccccc3)N(/N=C/c3cc4cc(C)ccc4nc3Cl)C2=O)cc1 | 65.9 µM | 39.3 µM | > 100 µM | 37.2 µM | 33.7 µM | 43 µM | 39.8 µM | 59 µM | 35.1 µM | > 100 µM |  |  |  |  |  |  |  |  |  |  |
| CCC(CC(C)C)Nc1ccc(NC(CC)CC(C)C)cc1 (stereo unspecified) | > 100 µM | 26.8 µM | 18.5 µM | 44.5 µM | 24.3 µM | 95.8 µM | 28.4 µM | 65.6 µM | 28.5 µM | 27.8 µM | 25 µM | 13.9 µM | 3.85 µM | 17.8 µM | 10.6 µM | 23.8 µM | 13.3 µM | 24.8 µM | 15.3 µM | 6.6 µM |
| C=C1C(=O)O[C@H]2[C@H]3O[C@@H](C[C@@H]12)[C@](C)(O)CC[C@@H]1O[C@@]1(C)CCC[C@H]3C | > 100 µM | 51.8 µM | > 100 µM | > 100 µM | 33.2 µM | 73.2 µM | 89.6 µM | > 100 µM | 31.4 µM | 58.2 µM |  |  |  |  |  |  |  |  |  |  |
| CO[C@H]1C[C@H](O[C@H]2CC[C@]3(C=O)[C@H]4CC[C@]5(C)[C@@H](C6=CC(=O)OC6)CC[C@]5(O)[C@@H]4CC[C@]3(O)C2)O[C@H](C)[C@H]1O | > 31.6 µM | 0.341 µM | 6.6 µM | 2.89 µM | 1.27 µM | 1.34 µM | 1.43 µM | 0.198 µM | 1.92 µM | > 100 µM |  |  |  |  |  |  |  |  |  |  |
| O=C1c2ccccc2-c2[nH]c3cn[nH]c(=O)c3c21 | > 100 µM | > 100 µM | > 100 µM | > 100 µM | > 100 µM | > 100 µM | > 100 µM | > 100 µM | > 100 µM | > 100 µM |  |  |  |  |  |  |  |  |  |  |
| CCOP(=O)(OCC)C(C)(CC)NC(=O)C(C(F)(F)F)C(F)(F)F (stereo unspecified) | > 100 µM | > 100 µM | > 81.6 µM and 59.7 µM | > 100 µM | > 100 µM | > 100 µM | > 100 µM | > 100 µM | > 100 µM | 48.7 µM and 53.1 µM |  |  |  |  | > 100 µM |  |  |  |  |  |
| N/C(=N\Nc1ccc(S(N)(=O)=O)cc1)c1cnccn1 | > 100 µM | > 100 µM | > 100 µM | > 100 µM | > 100 µM | > 100 µM | > 100 µM | > 100 µM | > 100 µM | > 100 µM |  |  |  |  |  |  |  |  |  |  |
| O=C1c2ccccc2C(=O)N1c1nc(-c2ccc(Cl)cc2)cc(N2N=C(c3ccc(Br)cc3)CC2c2ccccc2)n1 (stereo unspecified) | 20.8 µM | > 33 µM | 11.7 µM | > 23.7 µM | 11.5 µM | 35.4 µM | > 41.4 µM | 17.4 µM | > 21.7 µM | > 29.6 µM |  |  |  |  |  |  |  |  |  |  |
| O=C(/C=C/c1cccs1)c1ccccc1Cl | 35.5 µM | 26.8 µM | 61.9 µM | > 23.4 µM | 27.5 µM | 24 µM | 34.2 µM | 1.4 µM | 29.4 µM | 33.9 µM |  |  |  |  |  |  |  |  |  |  |
| C/C(=N\Nc1nc2ccccc2[nH]1)c1cc2ccccc2cn1 | 1.74 µM | 2.41 µM | 0.599 µM | > 100 µM | 1.09 µM | 0.665 µM | 5.67 µM | > 100 µM | 0.638 µM | 5.65 µM |  |  |  |  |  |  |  |  |  |  |
| Cc1ccc(/C(O)=C/c2nc3ccc([N+](=O)[O-])cc3nc2/C=C(\O)c2ccc(C)cc2)cc1 | > 91.4 µM | > 100 µM | > 100 µM | > 100 µM | > 69.3 µM | > 100 µM | > 100 µM | > 100 µM | > 100 µM | > 100 µM |  |  |  |  |  |  |  |  |  |  |
| O=C(Nc1cccc(-n2cc(-c3ccncc3)c(-c3ccc(O)c(Cl)c3)n2)c1)c1cccc(C(F)(F)F)c1 | > 100 µM | > 100 µM | 10.6 µM | > 100 µM | > 100 µM | > 100 µM | > 100 µM | > 100 µM | > 100 µM | > 100 µM | 2.26 µM | 5.33 µM | 2.04 µM | 2.96 µM | 6.52 µM | 3.44 µM | 8.15 µM | 2.5 µM | 3.71 µM | 1.88 µM |
